# Measurements reported in patent publication US20250108032A1, “METHODS OF TREATING TYPE 1 DIABETES AND KIDNEY DISEASE” (LEXICON PHARMACEUTICALS, INC., priority 2023, published 2025).
# How the values were obtained:
# [1] = tested on: adult patients with type 1 diabetes mellitus (overall and CKD cohorts); test: Pooled inTandem1 and inTandem2 double-blind clinical studies, sotagliflozin adjunct to optimized insulin; type: in vivo, human; conditions: for No Weight Gain at Week 52, HbA1c <7.0%: Absolute difference in % / No Weight Gain at Week 52, reduction in HbA1c ≥0.5%: Absolute difference in % / No Weight Gain at Week 52: % with absolute reduction in HbA1c ≥0.5% / No Weight Gain at Week 52: Percentage HbA1c <7.0% / Weight, LS Mean (SE) kg: Percent Change (%) from Baseline at Week 24 / Weight, LS Mean (SE) kg: Percent Change (%) from Baseline at Week 52 / Weight, LS Mean (SE): Treatment Comparison vs. PBO, Week 24 / Weight, LS Mean (SE): Treatment Comparison vs. PBO, Week 52 / Any TEAE, n (%) / Diarrhea, n (%) / Genital mycotic infection, n (%) / HbA1c change from Baseline, Week 52 Treatment Comparison LS Mean (SE), %: overall cohort; for HbA1c change from Baseline, Week 24 Treatment Comparison LS Mean (SE), % / HbA1c change from Baseline, Week 52 Treatment Comparison LS Mean (SE), %: vs placebo
# Protocol: The efficacy of sotagliflozin as adjunct therapy in adult patients with type 1 diabetes mellitus who have inadequate glycemic control with insulin therapy was evaluated in two multicenter, double-blind clinical studies named “in Tandem1” and “in Tandem2”. Patients were randomized into three treatment groups: those treated with sotagliflozin 200 mg/day, those treated with sotagliflozin 400 mg/day; and those treated with placebo.
# Details of the in Tandem1 study have been reported. See, e.g., Buse, J. B., et al., “Sotagliflozin in Combination With Optimized Insulin Therapy in Adults With Type 1 Diabetes: The North American in Tandem1 Study” Diabetes Care 2018; 41: 1970-1980. Details of the in Tandem2 study have also been reported. See, e.g., Danne. T., et al., “HbA and Hypoglycemia 1c Reductions at 24 and 52 Weeks With Sotagliflozin in Combination With Insulin in Adults With Type 1 Diabetes: The European in Tandem2 Study” Diabetes Care 2018; 41: 1981-1990. Both studies included men and nonpregnant women aged≥18 years with T1D using either multiple daily injections (MDI) or subcutaneous insulin infusion (SCII) for insulin delivery and whose HbA1C was 7.0-11.0% at screening. Patients with β-hydroxybutyrate (BHB) levels>0.6 mmol/L at screening were excluded.
# In both studies, insulin therapy was optimized for six weeks prior to randomization, and optimized insulin continued until the study conclusion at week 52. After a two-week placebo run-in, patients were randomly assigned to double-blind treatment with sotagliflozin 200 or 400 mg or placebo for 52 weeks. Insulin optimization, which refers to the adjustment of insulin to meet standard-of-care glycemic targets, starting six weeks prior to randomization and continued for the entire study. An independent insulin dose monitoring committee (IDMC) assessed standard-of-care adherence and provided feedback to the principal investigator if deviations from standard of care were observed prior to week 24. HbA1c was masked to study staff during this period. Between week 24 and 52, insulin optimization continued without input from the IDMC, and HbA1c values were unmasked. Safety was monitored for 30 days after the last dose of study medication.
# The primary endpoint of both studies was the change from baseline to week 24 in glycated hemoglobin A1C of either dose of sotagliflozin (400 mg or 200 mg) treatment group compared to placebo. Other endpoints included the change from baseline of sotagliflozin versus placebo in: the proportion of patients with A1C<7.0% and no episode of severe hypoglycemia and no episode of DKA; body weight, bolus insulin dose, fasting plasma glucose (FPG), diabetes treatment satisfaction questionnaire status (DTSQs) score; and Diabetes Distress Screening Scale (DDS2) questionnaire score.
# Efficacy analyses were based on the mITT (modified Intent-to-Treat) population. Primary efficacy analyses were conducted based on data collected during the Core Treatment Period (Baseline through and including the week 24 visit assessments). As shown below in Table 2, sotagliflozin achieved its primary endpoint by leading to statistically significant lower A1C levels for both doses when compared to placebo in the pooled in Tandem1/in Tandem2 study results after the core treatment and long-term extension periods.
# [2] = tested on: patients with type 2 diabetes mellitus and CKD (eGFR 25 to 60 ml per minute per 1.73 m^2); type: in vivo
# Excerpt: The cardiorenal protective properties of sotagliflozin in patients with type 2 diabetes informed research that led to the present invention. […] The primary end point was changed during the trial to the composite of the total number of deaths from cardiovascular causes, hospitalizations for heart failure, and urgent visits for heart failure.
# Of 19.188 patients screened, 10,584 were enrolled, with 5,292 assigned to the sotagliflozin group and 5,292 assigned to the placebo group and followed for a median of 16 months. The rate of primary end-point events was 5.6 events per 100 patient-years in the sotagliflozin group and 7.5 events per 100 patient-years in the placebo group: hazard ratio, 0.74; 95% confidence interval (CI), 0.63 to 0.88; P<0.001. The rate of deaths from cardiovascular causes per 100 patient-years was 2.2 with sotagliflozin and 2.4 with placebo (hazard ratio, 0.90; 95% CI, 0.73 to 1.12; P=0.35). For the original coprimary end point of the first occurrence of death from cardiovascular causes, nonfatal myocardial infarction, or nonfatal stroke, the hazard ratio was 0.84 (95% CI, 0.72 to 0.99); for the original coprimary end point of the first occurrence of death from cardiovascular causes or hospitalization for heart failure, the hazard ratio was 0.77 (95% CI, 0.66 to 0.91). Diarrhea, genital mycotic infections and volume depletion were more common with sotagliflozin than with placebo.
# Table 1 provides the number and type of cardiorenal events observed during the trial, wherein each of the sotagliflozin and placebo groups contained 5292 patients.
# [3] = 200 mg/day vs placebo, CKD Cohort, 52 weeks
# [4] = 200 mg/day vs placebo, Overall Cohort, 52 weeks
# [5] = 200 mg/day, CKD Cohort N = 85, 52 weeks
# [6] = 200 mg/day, overall cohort N = 524, positively adjudicated, through 52 Weeks
# [7] = 400 mg/day vs placebo, CKD Cohort, 52 weeks
# [8] = 400 mg/day vs placebo, Overall Cohort, 52 weeks
# [9] = 400 mg/day, CKD Cohort N = 76, 52 weeks
# [10] = 400 mg/day, overall cohort N = 525, positively adjudicated, through 52 Weeks
# [11] = T2D and CKD, 5292 patients per group
compound,measurement,setting,value
"CCOc1ccc(Cc2cc([C@@H]3O[C@H](SC)[C@@H](O)[C@H](O)[C@H]3O)ccc2Cl)cc1 [sotagliflozin, (2S,3R,4R,5S,6R)-2-(4-chloro-3-(4-ethoxybenzyl)phenyl)-6-(methylthio)tetrahydro-2H-pyran-3,4,5-triol]","No Weight Gain at Week 52, HbA1c <7.0%: Absolute difference in %",[1]; 200 mg/day vs PBO,12.6%
same,"No Weight Gain at Week 52, reduction in HbA1c ≥0.5%: Absolute difference in %",[1]; 200 mg/day vs PBO,14.9%
same,"DKA, HR (95% CI)",[1]; [3],"3.2 (0.4, 29.0)"
same,"Severe hypoglycemia, HR (95% CI)",[1]; [3],"0.34 (0.13, 0.91)"
same,"DKA, HR (95% CI)",[1]; [4],"15.0 (2.0, 113.3)"
same,"Severe hypoglycemia, HR (95% CI)",[1]; [4],"0.76 (0.47, 1.22)"
same,"DKA, n (%)",[1]; [5],4 (4.7) n (%)
same,"Severe hypoglycemia, n (%)",[1]; [5],6 (7.1) n (%)
same,No Weight Gain at Week 52: % with absolute reduction in HbA1c ≥0.5%,[1]; 200 mg/day,23.7%
same,No Weight Gain at Week 52: Percentage HbA1c <7.0%,[1]; 200 mg/day,21.8%
same,"Weight, LS Mean (SE) kg: Percent Change (%) from Baseline at Week 24",[1]; 200 mg/day,−1.70 (0.137) %
same,"Weight, LS Mean (SE) kg: Percent Change (%) from Baseline at Week 52",[1]; 200 mg/day,−2.31 (0.208) %
same,"Weight, LS Mean (SE): Treatment Comparison vs. PBO, Week 24",[1]; 200 mg/day,−2.17 (0.188) %
same,"Weight, LS Mean (SE): Treatment Comparison vs. PBO, Week 52",[1]; 200 mg/day,−3.21 (0.291) %
same,"DKA, n (%)",[1]; [6],15 (2.9) n (%)
same,"Severe hypoglycemia, n (%)",[1]; [6],30 (5.7) n (%)
same,"HbA1c change from Baseline, Week 24 Treatment Comparison LS Mean (SE), %","[1]; 200 mg/day, overall cohort n = 524",−0.36%
same,"Any TEAE, n (%)","[1]; 200 mg/day, through 52 Weeks",393 (75.0) n (%)
same,"Diarrhea, n (%)","[1]; 200 mg/day, through 52 Weeks",34 (6.5) n (%)
same,"Genital mycotic infection, n (%)","[1]; 200 mg/day, through 52 Weeks",48 (9.2) n (%)
same,"HbA1c change from Baseline, Week 52 Treatment Comparison LS Mean (SE), %",[1]; 200 mg/day,−0.23%
same,"No Weight Gain at Week 52, HbA1c <7.0%: Absolute difference in %",[1]; 400 mg/day vs PBO,17.0%
same,"No Weight Gain at Week 52, reduction in HbA1c ≥0.5%: Absolute difference in %",[1]; 400 mg/day vs PBO,20.0%
same,"DKA, HR (95% CI)",[1]; [7],"1.9 (0.2, 20.8)"
same,"Severe hypoglycemia, HR (95% CI)",[1]; [7],"0.2 (0.06, 0.70)"
same,"DKA, HR (95% CI)",[1]; [8],"20.3 (2.7, 151.2)"
same,"Severe hypoglycemia, HR (95% CI)",[1]; [8],"0.58 (0.35, 0.97)"
same,"DKA, n (%)",[1]; [9],2 (2.6) n (%)
same,"Severe hypoglycemia, n (%)",[1]; [9],3 (3.9) n (%)
same,No Weight Gain at Week 52: % with absolute reduction in HbA1c ≥0.5%,[1]; 400 mg/day,28.8%
same,No Weight Gain at Week 52: Percentage HbA1c <7.0%,[1]; 400 mg/day,26.1%
same,"Weight, LS Mean (SE) kg: Percent Change (%) from Baseline at Week 24",[1]; 400 mg/day,−2.55 (0.137) %
same,"Weight, LS Mean (SE) kg: Percent Change (%) from Baseline at Week 52",[1]; 400 mg/day,−3.33 (0.209) %
same,"Weight, LS Mean (SE): Treatment Comparison vs. PBO, Week 24",[1]; 400 mg/day,−3.02 (0.188) %
same,"Weight, LS Mean (SE): Treatment Comparison vs. PBO, Week 52",[1]; 400 mg/day,−4.24 (0.291) %
same,"DKA, n (%)",[1]; [10],20 (3.8) n (%)
same,"Severe hypoglycemia, n (%)",[1]; [10],23 (4.4) n (%)
same,"HbA1c change from Baseline, Week 24 Treatment Comparison LS Mean (SE), %","[1]; 400 mg/day, overall cohort n = 525",−0.38%
same,"Any TEAE, n (%)","[1]; 400 mg/day, through 52 Weeks",390 (74.3) n (%)
same,"Diarrhea, n (%)","[1]; 400 mg/day, through 52 Weeks",46 (8.8) n (%)
same,"Genital mycotic infection, n (%)","[1]; 400 mg/day, through 52 Weeks",63 (12.0) n (%)
same,"HbA1c change from Baseline, Week 52 Treatment Comparison LS Mean (SE), %",[1]; 400 mg/day,−0.32%
same,"efficacy (A1C, body weight, DTSQ change from baseline) by BMI subgroup","[1]; patients with BMI≥27 kg/m^2 compared to the lower BMI subgroup, Week 24",systematically better
same,relative risk of severe hypoglycemia,[1]; sotagliflozin compared to placebo in the CKD cohort,lower
same,relative risk of DKA,[1]; sotagliflozin relative to placebo in the CKD cohort,not significantly higher
same,A1C and BW in the CKD subgroup,[1]; to a similar extent as the overall cohort,significantly reduced
same,"50% decline in eGFR (sustained or last value), n (%)",[2]; [11],75 (1.4) n (%)
same,"Chronic dialysis or transplant, n (%)",[2]; [11],15 (0.3) n (%)
same,"End-stage kidney disease, n (%)",[2]; [11],50 (0.9) n (%)
same,"Renal death, n (%)",[2]; [11],8 (0.2) n (%)
same,"eGFR <15 mL/min/m^2 (sustained or last value), n (%)",[2]; [11],41 (0.8) n (%)
same,"First event in composite, n (%)","[2]; cardiorenal composite, T2D and CKD, 5292 patients per group, median follow-up 16 months",239 (4.5) n (%)
same,risk of cardiorenal endpoints,"[2]; compared to placebo, FIG. 1",significantly reduced
same,rate of primary end-point events,"[2]; composite of deaths from cardiovascular causes, hospitalizations for heart failure, urgent visits for heart failure, median 16 months",5.6 events per 100 patient-years
same,"Diarrhea, genital mycotic infections and volume depletion","[2]; human, in vivo",more common
same,rate of deaths from cardiovascular causes,[2]; median follow-up 16 months,2.2 per 100 patient-years
same,"50% decline in eGFR (sustained or last value), HR (95% CI)",[2]; vs placebo,"0.60 (0.45, 0.81)"
same,"End-stage kidney disease, HR (95% CI)",[2]; vs placebo,"0.63 (0.45, 0.91)"
same,"Renal death, HR (95% CI)",[2]; vs placebo,"1.59 (0.52, 4.86)"
same,"eGFR <15 mL/min/m^2 (sustained or last value), HR (95% CI)",[2]; vs placebo,"0.60 (0.41, 0.88)"
same,primary end point hazard ratio,"[2]; vs placebo, 95% CI 0.63 to 0.88",0.74
same,"hazard ratio, original coprimary end point: first occurrence of death from cardiovascular causes or hospitalization for heart failure","[2]; vs placebo, 95% CI 0.66 to 0.91",0.77
same,"hazard ratio, original coprimary end point: first occurrence of death from cardiovascular causes, nonfatal myocardial infarction, or nonfatal stroke","[2]; vs placebo, 95% CI 0.72 to 0.99",0.84
same,"First event in composite, HR (95% CI)","[2]; vs placebo, T2D and CKD","0.77 (0.65, 0.91)"
